The results in this text go back to article PMC6333238, “The biosynthetic implications of late-stage condensation domain selectivity during glycopeptide antibiotic biosynthesis” (Chemical Science, 2018).

What all share (test): coupled PPi-release A-domain assay (PPi-PFK/aldolase/TPI/GDH, NADH)
Common to all, as to type: biochemical
Details in all cases: apo-PCP form, 0.5 mM ATP, 1 mM MgCl2, pH 7.4, 0.1 mM EDTA, enzyme 0.5 μM

One assay concerns the target T1, Tcp12_ΔTE2 (Actinoplanes teichomyceticus, UniProt Q70AZ6).
T1 construct: gene tcp12; with MbtH-like protein Tcp17
The text has this:
coupled PPi-release A-domain assay (PPi-PFK/aldolase/TPI/GDH, NADH) on Tcp12_ΔTE2

Another assay has as its target T2, Tcp12_ΔTE3 (Actinoplanes teichomyceticus, UniProt Q70AZ6).
T2 construct: gene tcp12; with MbtH-like protein Tcp17
The source says:
coupled PPi-release A-domain assay (PPi-PFK/aldolase/TPI/GDH, NADH) on Tcp12_ΔTE3

Another assay has as its target T3, Tcp12_ΔTE1 (Actinoplanes teichomyceticus, UniProt Q70AZ6).
T3 construct: gene tcp12; with MbtH-like protein Tcp17
The source says: coupled PPi-release A-domain assay (PPi-PFK/aldolase/TPI/GDH, NADH) on Tcp12_ΔTE1

T3 sequence (Q70AZ6 entry or part of it, stated change not applied): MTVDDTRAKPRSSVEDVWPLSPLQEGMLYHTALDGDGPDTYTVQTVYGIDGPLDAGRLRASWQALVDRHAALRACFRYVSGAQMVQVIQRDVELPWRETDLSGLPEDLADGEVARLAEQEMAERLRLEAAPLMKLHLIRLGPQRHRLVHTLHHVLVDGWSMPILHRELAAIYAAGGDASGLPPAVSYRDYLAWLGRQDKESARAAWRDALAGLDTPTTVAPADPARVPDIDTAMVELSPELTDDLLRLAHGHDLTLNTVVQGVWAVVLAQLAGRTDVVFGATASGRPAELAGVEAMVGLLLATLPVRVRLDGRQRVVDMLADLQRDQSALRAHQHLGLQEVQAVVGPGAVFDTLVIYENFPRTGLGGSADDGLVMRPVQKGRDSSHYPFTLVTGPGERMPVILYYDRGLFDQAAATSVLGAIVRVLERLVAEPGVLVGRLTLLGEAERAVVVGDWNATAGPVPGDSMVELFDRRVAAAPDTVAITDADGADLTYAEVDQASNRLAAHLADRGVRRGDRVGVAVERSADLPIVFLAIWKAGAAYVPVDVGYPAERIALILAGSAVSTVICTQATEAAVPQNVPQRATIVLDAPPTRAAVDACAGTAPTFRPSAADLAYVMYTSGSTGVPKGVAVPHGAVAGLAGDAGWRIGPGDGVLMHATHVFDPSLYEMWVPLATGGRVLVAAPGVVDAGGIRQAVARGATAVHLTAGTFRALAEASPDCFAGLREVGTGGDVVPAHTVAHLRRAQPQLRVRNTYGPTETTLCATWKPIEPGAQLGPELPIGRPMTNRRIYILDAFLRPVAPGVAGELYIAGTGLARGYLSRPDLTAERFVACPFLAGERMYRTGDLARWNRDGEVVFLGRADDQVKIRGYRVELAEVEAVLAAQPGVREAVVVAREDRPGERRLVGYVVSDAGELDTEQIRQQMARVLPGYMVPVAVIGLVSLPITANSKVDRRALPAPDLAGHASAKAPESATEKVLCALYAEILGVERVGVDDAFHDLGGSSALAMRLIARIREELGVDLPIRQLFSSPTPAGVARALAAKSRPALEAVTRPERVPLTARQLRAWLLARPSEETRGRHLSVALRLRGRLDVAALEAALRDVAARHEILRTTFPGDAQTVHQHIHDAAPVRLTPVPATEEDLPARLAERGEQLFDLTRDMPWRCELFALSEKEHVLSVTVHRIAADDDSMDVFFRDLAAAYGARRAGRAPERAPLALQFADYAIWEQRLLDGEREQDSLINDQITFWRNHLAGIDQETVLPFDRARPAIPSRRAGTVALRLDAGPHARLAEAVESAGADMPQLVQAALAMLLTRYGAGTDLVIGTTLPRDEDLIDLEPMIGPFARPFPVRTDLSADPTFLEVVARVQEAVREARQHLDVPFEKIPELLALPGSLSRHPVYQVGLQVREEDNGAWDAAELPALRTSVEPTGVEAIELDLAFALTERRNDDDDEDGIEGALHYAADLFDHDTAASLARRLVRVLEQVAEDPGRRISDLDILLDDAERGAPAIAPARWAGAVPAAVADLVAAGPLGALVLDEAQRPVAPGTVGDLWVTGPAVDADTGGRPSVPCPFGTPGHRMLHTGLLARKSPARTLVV
T3 sequence (Q70AZ1 entry or part of it, stated change not applied, further chain): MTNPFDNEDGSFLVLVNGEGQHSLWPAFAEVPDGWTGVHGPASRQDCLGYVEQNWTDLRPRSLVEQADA
T2 sequence (Q70AZ6 entry or part of it, stated change not applied): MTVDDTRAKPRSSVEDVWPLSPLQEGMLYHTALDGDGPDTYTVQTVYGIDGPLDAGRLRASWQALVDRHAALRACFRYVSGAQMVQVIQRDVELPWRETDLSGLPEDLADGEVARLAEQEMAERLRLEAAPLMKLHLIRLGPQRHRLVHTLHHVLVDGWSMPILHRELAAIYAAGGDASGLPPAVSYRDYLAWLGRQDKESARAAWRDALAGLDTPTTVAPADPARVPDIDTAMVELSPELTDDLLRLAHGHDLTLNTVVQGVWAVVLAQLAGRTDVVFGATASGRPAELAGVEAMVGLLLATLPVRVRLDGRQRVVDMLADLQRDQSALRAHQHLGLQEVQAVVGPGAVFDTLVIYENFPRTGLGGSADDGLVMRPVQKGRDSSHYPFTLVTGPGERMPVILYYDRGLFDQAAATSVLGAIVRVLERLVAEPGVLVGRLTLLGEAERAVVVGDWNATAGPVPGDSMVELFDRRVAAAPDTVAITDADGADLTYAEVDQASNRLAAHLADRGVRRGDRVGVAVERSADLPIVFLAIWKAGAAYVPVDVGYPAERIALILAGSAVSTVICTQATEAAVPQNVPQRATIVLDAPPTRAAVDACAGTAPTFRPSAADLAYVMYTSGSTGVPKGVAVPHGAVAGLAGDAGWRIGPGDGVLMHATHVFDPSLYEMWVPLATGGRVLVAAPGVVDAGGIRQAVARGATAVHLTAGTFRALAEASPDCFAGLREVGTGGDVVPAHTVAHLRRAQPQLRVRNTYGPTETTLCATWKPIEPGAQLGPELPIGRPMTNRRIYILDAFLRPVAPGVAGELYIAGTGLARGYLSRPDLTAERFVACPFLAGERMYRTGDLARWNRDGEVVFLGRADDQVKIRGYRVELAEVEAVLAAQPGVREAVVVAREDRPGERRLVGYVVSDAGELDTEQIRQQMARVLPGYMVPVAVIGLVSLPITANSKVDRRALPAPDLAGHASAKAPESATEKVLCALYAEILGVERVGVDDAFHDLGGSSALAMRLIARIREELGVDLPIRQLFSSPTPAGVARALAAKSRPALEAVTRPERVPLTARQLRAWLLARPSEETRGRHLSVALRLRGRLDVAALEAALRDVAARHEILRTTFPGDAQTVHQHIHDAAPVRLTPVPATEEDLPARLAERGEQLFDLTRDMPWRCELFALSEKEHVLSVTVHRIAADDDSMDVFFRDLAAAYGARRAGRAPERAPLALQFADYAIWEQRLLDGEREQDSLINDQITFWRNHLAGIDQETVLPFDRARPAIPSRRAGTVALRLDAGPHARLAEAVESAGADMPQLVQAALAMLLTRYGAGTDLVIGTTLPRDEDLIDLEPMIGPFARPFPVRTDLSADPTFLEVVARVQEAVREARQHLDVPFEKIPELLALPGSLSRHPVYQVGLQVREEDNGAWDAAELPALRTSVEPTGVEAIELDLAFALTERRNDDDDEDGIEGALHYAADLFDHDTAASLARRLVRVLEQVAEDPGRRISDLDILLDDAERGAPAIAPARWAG
T2 sequence (Q70AZ1 entry or part of it, stated change not applied, further chain): as the sequence (Q70AZ1 entry or part of it, stated change not applied, further chain) above
T1 sequence (Q70AZ6 entry or part of it, stated change not applied): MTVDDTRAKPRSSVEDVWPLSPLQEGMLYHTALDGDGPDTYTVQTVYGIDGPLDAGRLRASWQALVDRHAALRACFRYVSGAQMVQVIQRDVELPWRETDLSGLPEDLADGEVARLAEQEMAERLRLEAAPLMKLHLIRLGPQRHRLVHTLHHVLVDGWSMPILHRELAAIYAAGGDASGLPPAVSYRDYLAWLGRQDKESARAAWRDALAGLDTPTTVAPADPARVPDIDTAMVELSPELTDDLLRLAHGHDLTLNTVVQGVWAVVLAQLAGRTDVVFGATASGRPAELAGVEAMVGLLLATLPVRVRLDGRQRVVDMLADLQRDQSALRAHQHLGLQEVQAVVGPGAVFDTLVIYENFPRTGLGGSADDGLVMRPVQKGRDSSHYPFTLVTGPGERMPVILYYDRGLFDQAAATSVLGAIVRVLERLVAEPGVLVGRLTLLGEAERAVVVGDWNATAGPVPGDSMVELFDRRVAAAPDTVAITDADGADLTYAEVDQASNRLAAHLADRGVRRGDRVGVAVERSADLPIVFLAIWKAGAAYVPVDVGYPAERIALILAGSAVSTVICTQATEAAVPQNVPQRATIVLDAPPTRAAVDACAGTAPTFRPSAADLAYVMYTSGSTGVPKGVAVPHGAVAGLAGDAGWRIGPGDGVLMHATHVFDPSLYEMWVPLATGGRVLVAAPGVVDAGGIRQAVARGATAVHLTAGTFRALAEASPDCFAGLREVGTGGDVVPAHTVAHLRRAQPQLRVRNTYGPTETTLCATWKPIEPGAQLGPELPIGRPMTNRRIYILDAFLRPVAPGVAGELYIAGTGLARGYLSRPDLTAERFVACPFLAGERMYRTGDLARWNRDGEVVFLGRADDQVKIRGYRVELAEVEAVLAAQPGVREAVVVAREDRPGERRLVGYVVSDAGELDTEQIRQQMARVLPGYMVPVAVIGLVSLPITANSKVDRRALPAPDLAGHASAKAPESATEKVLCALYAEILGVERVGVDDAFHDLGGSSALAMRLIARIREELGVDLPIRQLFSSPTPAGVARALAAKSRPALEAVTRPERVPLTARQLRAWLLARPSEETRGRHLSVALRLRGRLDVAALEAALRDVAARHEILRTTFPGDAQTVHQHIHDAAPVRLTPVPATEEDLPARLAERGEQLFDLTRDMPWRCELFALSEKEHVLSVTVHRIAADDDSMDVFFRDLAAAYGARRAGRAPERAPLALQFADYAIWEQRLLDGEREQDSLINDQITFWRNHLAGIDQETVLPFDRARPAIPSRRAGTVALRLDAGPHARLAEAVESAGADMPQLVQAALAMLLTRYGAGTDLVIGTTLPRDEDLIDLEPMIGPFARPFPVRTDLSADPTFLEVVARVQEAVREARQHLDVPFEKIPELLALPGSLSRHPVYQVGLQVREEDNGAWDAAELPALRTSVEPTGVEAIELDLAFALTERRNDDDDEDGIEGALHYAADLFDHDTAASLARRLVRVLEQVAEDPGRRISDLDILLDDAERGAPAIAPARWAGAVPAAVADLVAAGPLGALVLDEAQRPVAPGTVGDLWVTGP
T1 sequence (Q70AZ1 entry or part of it, stated change not applied, further chain): as the sequence (Q70AZ1 entry or part of it, stated change not applied, further chain) above

As usually defined, the Km is the concentration of substrate that gives half-maximal velocity. As for `N[C@H](C(=O)O)c1cc(O)cc(O)c1` [Dpg, (S)-3,5-dihydroxyphenylglycine], the Km at Tcp12_ΔTE2 worked out at 10 ± 0.9 µM; on Tcp12_ΔTE3, 8 ± 0.6 µM; at Tcp12_ΔTE1, 6 ± 0.6 µM.
